{"source": "PubChem BioAssay (NCI)", "note": "“And” between values parts separate entries of the source, which are not always exact repeats. Equal entries are not always repeated.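 1) Cells in 96-well plates. 2) Compound, 48 h, 5 concentrations. 3) Linear interpolation between surrounding doses. 4) Unreached endpoint = highest concentration. GI50: concentration for 50% inhibition of growth. TGI denotes the concentration required for complete inhibition of growth.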", "data": [{"test_system": "MDA-MB-468 breast", "assay": "DTP human tumour cell line panel, 48 h", "values": [{"smiles": "CC(C)(C)C(=O)OCOP(=O)(OCOC(=O)C(C)(C)C)C1CCCN(OC(=O)c2ccccc2)C1=O", "note": "(centres undefined)", "GI50": "1.86 µM", "TGI": "14.1 µM"}, {"smiles": "Cn1cc(C2=C(c3c4n(c5ccccc35)CC(CN)C4)C(=O)NC2=O)c2ccccc21", "note": "(centres undefined)", "GI50": "2.79 µM", "TGI": "6.17 µM"}, {"smiles": "O=C(CCc1nnc(-c2c(Cl)cccc2Cl)o1)c1nc2ccccc2[nH]1", "GI50": "0.797 µM", "TGI": "12.2 µM"}, {"smiles": "O=C(CCCCC(=O)N/N=C\\c1ccccc1Cl)N/N=C\\c1ccccc1Cl", "GI50": "1.83 µM", "TGI": "49.5 µM"}, {"smiles": "C#CC[C@@H]1C[C@]2(C)[C@H]3CC[C@@H]4[C@H]5[C@H](C(=C)C)CC[C@]5(C(=O)O)CC[C@@]4(C)[C@]3(C)CC[C@H]2C(C)(C)[C@H]1O", "GI50": "2.21 µM", "TGI": "5.29 µM"}, {"smiles": "CCOC(=O)c1ccc2c(c1)[n+](=O)c(C(=O)c1ccc3ccccc3c1)c(C(F)(F)F)n2[O-]", "GI50": "0.372 µM", "TGI": "1.51 µM"}, {"smiles": "CCCCCCCCCCCC1=NC(C)(C)CN1CCO", "GI50": "3.27 µM", "TGI": "12.8 µM"}, {"smiles": "COC1OCC(OS(=O)(=O)c2ccc(C)cc2)C(OC(=O)c2ccccc2)C1OC(=O)c1ccccc1", "note": "(centres undefined)", "GI50": "2.5 µM", "TGI": "> 100 µM"}, {"smiles": "O=C(CSc1nc2ccc([N+](=O)[O-])cc2[nH]1)Nc1cccc(Cl)c1", "GI50": "1.59 µM", "TGI": "5.89 µM"}, {"smiles": "CCOCCc1c(O)nc(SC)[nH]c1=O", "GI50": "> 100 µM", "TGI": "> 100 µM"}, {"smiles": "COc1cc(C(=O)NC2CCN(C)CC2)ccc1Nc1ncc2c(n1)N(C1CCCC1)CC(F)(F)C(=O)N2C", "GI50": "< 0.01 µM", "TGI": "< 0.0427 µM"}, {"smiles": "O=C1[C@H]2Cc3c([nH]c4ccccc34)[C@@H](c3ccc(Br)cc3)N2C(=O)CN1C1CCN(CC2CCCCC2)CC1", "GI50": "13.2 µM", "TGI": "27.2 µM"}, {"smiles": "COc1ccc(-n2c(SCC(=O)Nc3ccc(-c4nc5ccccc5[nH]4)cc3)nc3ccccc3c2=O)cc1", "GI50": "1.97 µM", "TGI": "4.63 µM"}, {"smiles": "O=C1Nc2cc(Cl)ccc2Oc2cc(Oc3ccccc3)ccc21", "GI50": "1.85 µM", "TGI": "8.88 µM"}, {"smiles": "O=C1Nc2ccccc2C1(c1ccc(O)c(F)c1)c1ccc(O)c(F)c1", "GI50": "0.29 µM", "TGI": "0.996 µM"}, {"smiles": "CC(C)c1ccc2c(N=Nc3ccc(S(N)(=O)=O)cc3)c(O)[nH]c2c1", "GI50": "7.76 µM", "TGI": "> 25 µM"}, {"smiles": "Cc1ccc(Cl)cc1Nc1nc(C(F)(F)F)ccc1C(=O)N/N=C/c1c(Cl)cccc1Cl", "GI50": "0.662 µM", "TGI": "8.47 µM"}, {"smiles": "Fc1ccc(-c2ncn(C3CCNCC3)c2-c2ccnc(Oc3ccccc3)n2)cc1", "GI50": "3.69 µM", "TGI": "12.2 µM"}, {"smiles": "CN(C)c1ccc(/C=C(\\C#N)c2cc3ccccc3n2C)cc1", "GI50": "0.0694 µM", "TGI": "2.11 µM"}, {"smiles": "COc1ccc(C(=O)Nc2ncc(Cc3ccccc3Cl)s2)cc1", "GI50": "0.353 µM", "TGI": "33 µM"}, {"smiles": "O=C(/C=C/c1ccccn1)c1ccccc1O", "GI50": "1.61 µM", "TGI": "3.1 µM"}, {"smiles": "Nc1ccccc1/C=N\\Nc1ccccc1", "GI50": "79.7 µM", "TGI": "> 100 µM"}, {"smiles": "C(=N/Nc1ncnc2nc[nH]c12)/c1ccccn1", "GI50": "0.0868 µM", "TGI": "0.441 µM"}, {"smiles": "C=C1C(=O)O[C@H]2[C@H]1CC/C(COC(=O)/C=C\\C(=O)NCc1ccc(Cn3c(=O)sn(-c4ccc(OC)cc4)c3=O)cc1)=C\\CC[C@@]1(C)O[C@@H]21", "GI50": "0.652 µM", "TGI": "1.52 µM"}, {"smiles": "CS(=O)(=O)N1CCN(Cc2cc3nc(-c4cccc5[nH]ncc45)nc(N4CCOCC4)c3s2)CC1", "GI50": "0.0553 µM and 0.123 µM", "TGI": "0.467 µM and 0.985 µM"}, {"smiles": "COc1ccc(Nc2c3c4c(cccc4[nH]c2=O)C(=O)c2ccccc2-3)cc1", "GI50": "0.0237 µM"}, {"smiles": "CCOC(=O)C1=C(N)Oc2c(sc3c(C)cccc23)C1c1ccc(Cl)cc1", "note": "(centres undefined)", "GI50": "3.11 µM", "TGI": "13.4 µM"}, {"smiles": "Nc1ncnc2c1c(-c1cccc(OCc3ccccc3)c1)cn2C1CC(CN2CCCC2)C1", "note": "(centres undefined)", "GI50": "1.38 µM", "TGI": "3.14 µM"}, {"smiles": "C=C1C(=O)O[C@H]2[C@H]1CC/C(C=Nc1ccc(C(F)(F)F)cc1N)=C\\CC[C@@]1(C)O[C@@H]21", "GI50": "3.49 µM", "TGI": "12.6 µM"}, {"smiles": "CCCN(CCC)c1ccc(C=O)cc1", "GI50": "16.4 µM", "TGI": "53.9 µM"}, {"smiles": "CCc1ccc(CCC(=O)Nc2ncc(Cc3cc(Cl)ccc3Cl)s2)o1", "GI50": "0.769 µM", "TGI": "5.97 µM"}, {"smiles": "Fc1ccc(CNc2c3ccccc3nc3ccccc23)cc1", "GI50": "1.91 µM", "TGI": "4.86 µM"}, {"smiles": "O=C(c1ccccc1)c1ccc(Cl)c([N+](=O)[O-])c1", "GI50": "2.16 µM", "TGI": "6.46 µM"}, {"smiles": "O=C(Nc1ncc(Cc2ccccc2)s1)c1ccc2c(c1)OCCO2", "GI50": "0.254 µM"}, {"smiles": "N/C(=N\\c1nc2c(Cl)cc(Cl)cc2s1)C(Cl)(Cl)Cl", "GI50": "2.85 µM", "TGI": "12.3 µM"}, {"smiles": "CCCn1cc(C2=C(c3cn(C)c4ccccc34)C(=O)NC2=O)c2ccccc21", "GI50": "0.429 µM", "TGI": "11.1 µM"}, {"smiles": "COc1cc(-c2cc(/C=C/C(=O)c3ccc4c(c3)OCO4)[nH]n2)cc(OC)c1OC", "GI50": "1.4 µM", "TGI": "2.86 µM"}, {"smiles": "COc1ccccc1CNCCCN1C(=O)c2ccc3c4c(ccc(c24)C1=O)C(=O)N(CCCNCCCCNCCCCN)C3=O", "GI50": "0.28 µM", "TGI": "1.17 µM"}]}]}
